Data taken from patent US20150087673A1, “METHODS FOR USING AND BIOMARKERS FOR AMPK-ACTIVATING COMPOUNDS” (RIGEL PHARMACEUTICALS, INC., priority 2013, published 2015).

What follows are compounds tested on AMPK (assay: AMPK activation assay (enzyme-linked immunosorbent assay)).
Assay type: cell-based
How it was run: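 Activator screen performed per well-known kit methods.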
Work on `N#Cc1ccc(CN2CCC(NC(=O)c3ccc(C(=O)N4CCN(CC5CCCCC5)CC4)cn3)CC2)cc1` [Compound 95, N-(1-(4-cyanobenzyl)piperidin-4-yl)-5-(4-(cyclohexylmethyl)piperazine-1-carbonyl)picolinamide] yielded an EC50 of under 500 nM. In the case of `N#Cc1ccc(CN2CCC(NC(=O)c3ccc(C(=O)N4CCC(C(=O)c5ccc(N6CCCC6)cc5)CC4)nc3)CC2)cc1` [Compound 377, N-(1-(4-cyanobenzyl)piperidin-4-yl)-6-(4-(4-(pyrrolidin-1-yl)benzoyl)piperidine-1-carbonyl)nicotinamide], the EC50 is reported as under 500 nM. Compound `O=C(Nc1ccc(N2CCOCC2)cc1)c1ccc(C(=O)N2CCN(Cc3ccc(F)cc3)CC2)cn1` [Compound 40, 5-(4-(4-fluorobenzyl)piperazine-1-carbonyl)-N-(4-morpholinophenyl)picolinamide] has an EC50 of 1000 to 5000 nM. Work on `COc1ccc(C(=O)C2CCN(C(=O)c3ccc(C(=O)NC4CCNCC4)cn3)CC2)cc1` [Compound 445, 6-(4-(4-methoxybenzoyl)piperidine-1-carbonyl)-N-(piperidin-4-yl)nicotinamide] yielded an EC50 of over 10000 nM. `O=C(NC1CCN(Cc2ccccc2)CC1)c1ccc(C(=O)N2CCN(Cc3ccccc3)CC2)cn1` [Compound 72, 5-(4-benzylpiperazine-1-carbonyl)-N-(1-benzylpiperidin-4-yl)picolinamide] gave an EC50 of under 500 nM. With `COc1ccc(OC2CCN(C(=O)c3ccc(C(=O)NC4CCN(Cc5ccc(C#N)cc5)CC4)nc3)CC2)cc1` [Compound 143, N-(1-(4-cyanobenzyl)piperidin-4-yl)-5-(4-(4-methoxyphenoxy)piperidine-1-carbonyl)picolinamide] the EC50 was under 500 nM. `N#Cc1ccc(OC2CCN(C(=O)c3ccc(C(=O)N[C@H]4CC[C@@H](Oc5ccc(C(F)(F)F)cc5)CC4)nc3)CC2)cc1` [Compound 193, 5-(4-(4-cyanophenoxy)piperidine-1-carbonyl)-N-((cis)-4-(4-(trifluoromethyl)phenoxy)cyclohexyl) picolinamide] gave an EC50 of under 500 nM. For `CS(=O)(=O)c1ccc(N2CCN(C(=O)c3ccc(C(=O)NC4CCN(Cc5ccc(C#N)cc5)CC4)nc3)CC2)cc1` [Compound 250, N-(1-(4-cyanobenzyl)piperidin-4-yl)-5-(4-(4-(methylsulfonyl)phenyl)piperazine-1-carbonyl)picolinamide], the EC50 was under 500 nM. `CS(=O)(=O)c1ccc(OC2CCN(C(=O)c3ccc(C(=O)NC4CCN(Cc5ccc(C#N)cc5)CC4)nn3)CC2)cc1` [Compound 399, N-(1-(4-cyanobenzyl)piperidin-4-yl)-6-(4-(4-(methylsulfonyl)phenoxy)piperidine-1-carbonyl)pyridazine-3-carboxamide] gave an EC50 of under 500 nM. `N#Cc1ccc(CN2CCC(NC(=O)c3ccc(C(=O)N4CCC(Oc5ccc(C#N)c(Cl)c5)CC4)cn3)CC2)cc1` [Compound 156, 5-(4-(3-chloro-4-cyanophenoxy)piperidine-1-carbonyl)-N-(1-(4-cyanobenzyl)piperidin-4-yl)picolinamide] showed an EC50 of under 500 nM. `CC(C)S(=O)(=O)c1ccc(N2CCN(C(=O)c3ccc(C(=O)NC4CCN(Cc5ccc(C#N)cc5)CC4)nc3)CC2)cc1` [Compound 251, N-(1-(4-cyanobenzyl)piperidin-4-yl)-5-(4-(4-(isopropylsulfonyl)phenyl)piperazine-1-carbonyl)picolinamide] showed an EC50 of under 500 nM. Work on `N#Cc1ccc(OC2CCN(c3ccc(C(=O)N4CCN(Cc5ccc(F)cc5)CC4)cn3)CC2)cc1` [Compound 188, 4-(1-(5-(4-(4-fluorobenzyl)piperazine-1-carbonyl)pyridin-2-yl)piperidin-4-yloxy)benzonitrile] yielded an EC50 of 500 to 1000 nM. `CN1CCN(c2ccc(C(=O)C3CCN(C(=O)c4cnc(C(=O)NC5CCN(Cc6ccc(C#N)cc6)CC5)cn4)CC3)cc2)CC1` [Compound 220, N-(1-(4-cyanobenzyl)piperidin-4-yl)-5-(4-(4-(4-methylpiperazin-1-yl)benzoyl)piperidine-1-carbonyl)pyrazine-2-carboxamide] showed an EC50 of under 500 nM. In the case of `O=C(c1ccccc1)c1ccc(NC(=O)c2ccc(C(=O)N3CCN(Cc4ccc(F)cc4)CC3)cn2)cc1` [Compound 26, N-(4-benzoylphenyl)-5-(4-(4-fluorobenzyl)piperazine-1-carbonyl)picolinamide], the EC50 is reported as under 500 nM. `CS(=O)(=O)c1ccc(C(=O)C2CCN(C(=O)c3ccc(C(=O)N[C@@H]4CCN(Cc5ccc(OC(F)(F)F)cc5)C[C@H]4F)nc3)CC2)cc1` (relative stereo) [Compound 253, N-((trans)-3-fluoro-1-(4-(trifluoromethoxy)benzyl)piperidin-4-yl)-5-(4-(4-(methylsulfonyl)benzoyl)piperidine-1-carbonyl)picolinamide] showed an EC50 of 500 to 1000 nM. With `CS(=O)(=O)c1ccc(OC2CCN(C(=O)c3cnc(C(=O)NC4CCN(Cc5ccc(C#N)cc5)CC4)cn3)CC2)cc1` [Compound 218, N-(1-(4-cyanobenzyl)piperidin-4-yl)-5-(4-(4-(methylsulfonyl)phenoxy)piperidine-1-carbonyl)pyrazine-2-carboxamide] the EC50 was under 500 nM. Compound `COc1ccc(OC2CCN(C(=O)c3ccc(C(=O)NC4CCN(Cc5ccc(C#N)cc5)CC4)cn3)CC2)c(NC(C)=O)c1` [Compound 383, 6-(4-(2-acetamido-4-methoxyphenoxy)piperidine-1-carbonyl)-N-(1-(4-cyanobenzyl)piperidin-4-yl)nicotinamide] has an EC50 of over 10000 nM. `N#Cc1ccc(CN2CCC(NC(=O)c3ccc(C(=O)N4CCN(c5ccc(C(=O)C6CC6)cc5)CC4)cn3)CC2)cc1` [Compound 258, N-(1-(4-cyanobenzyl)piperidin-4-yl)-5-(4-(4-(cyclopropanecarbonyl)phenyl)piperazine-1-carbonyl)picolinamide] showed an EC50 of under 500 nM. `N#Cc1ccc(OC2CCN(C(=O)c3ccc(C(=O)N[C@H]4CC[C@@H](Oc5ccc(C#N)cc5)CC4)cn3)CC2)cc1` [Compound 321, N-((cis)-4-(4-cyanophenoxy)cyclohexyl)-6-(4-(4-cyanophenoxy)piperidine-1-carbonyl)nicotinamide] showed an EC50 of under 500 nM. Compound `O=C(NC1CCN(Cc2ccc(F)cc2)CC1)c1ccc(C(=O)N2CC[C@H](Oc3ccc(F)cc3)C2)cn1` [Compound 182, (S)-N-(1-(4-fluorobenzyl)piperidin-4-yl)-5-(3-(4-fluorophenoxy)pyrrolidine-1-carbonyl)picolinamide] has an EC50 of under 500 nM. `O=C(N[C@@H]1CCN(Cc2ccncc2)C[C@@H]1F)c1ccc(C(=O)N2CCN(Cc3ccc(F)cc3)CC2)cn1` (relative stereo) [Compound 104, N-(cis-3-fluoro-1-(pyridin-4-ylmethyl)piperidin-4-yl)-5-(4-(4-fluorobenzyl)piperazine-1-carbonyl)picolinamide] showed an EC50 of under 500 nM. Work on `CC(C)N1CCN(C(=O)c2ccc(C(=O)N3CCN(CCc4ccccc4)CC3)nc2)CC1` [Compound 91, (4-isopropylpiperazin-1-yl)(6-(4-phenethylpiperazine-1-carbonyl)pyridin-3-yl)methanone] yielded an EC50 of over 10000 nM. For `CS(=O)(=O)c1ccc(OC2CCN(C(=O)c3ccc(C(=O)Nc4ccc(S(=O)(=O)c5ccc(F)cc5)nc4)nc3)CC2)cc1` [Compound 261, N-(6-(4-fluorophenylsulfonyl)pyridin-3-yl)-5-(4-(4-(methylsulfonyl)phenoxy)piperidine-1-carbonyl)picolinamide], the EC50 was under 500 nM. `N#Cc1ccc(CN2CCC(NC(=O)c3ccc(C(=O)N4CCC(C(=O)c5ccc(F)cc5)CC4)cn3)CC2)cc1` [Compound 136, N-(1-(4-cyanobenzyl)piperidin-4-yl)-5-(4-(4-fluorobenzoyl)piperidine-1-carbonyl)picolinamide] gave an EC50 of under 500 nM. With `N#Cc1ccc(CN2CCC(NC(=O)c3ccc(C(=O)Nc4cnn(Cc5ccc(C#N)cc5)c4)cn3)CC2)cc1` [Compound 43, N^5-(1-(4-cyanobenzyl)-1H-pyrazol-4-yl)-N^2-(1-(4-cyanobenzyl)piperidin-4-yl)pyridine-2,5-dicarboxamide] the EC50 was 1000 to 5000 nM. In the case of `N#Cc1ccc(CN2CCC(NC(=O)c3ccc(C(=O)N4CCC(Oc5cccc(NC(=O)C6CC6)c5)CC4)nc3)CC2)cc1` [Compound 431, N-(1-(4-cyanobenzyl)piperidin-4-yl)-6-(4-(3-(cyclopropanecarboxamido)phenoxy)piperidine-1-carbonyl)nicotinamide], the EC50 is reported as 500 to 1000 nM. `O=C(Nc1ccc(Oc2ccc(F)cc2)nc1)c1ccc(C(=O)N2CCN(Cc3ccc(F)cc3)CC2)nc1` [Compound 334, 6-(4-(4-fluorobenzyl)piperazine-1-carbonyl)-N-(6-(4-fluorophenoxy)pyridin-3-yl)nicotinamide] was tested, and the EC50 was under 500 nM. In the case of `N#Cc1ccc(O[C@H]2CC[C@H](NC(=O)c3ccc(C(=O)N4CCC(Oc5ccc(F)cc5)CC4)cn3)CC2)cc1` [Compound 169, N-((trans)-4-(4-cyanophenoxy)cyclohexyl)-5-(4-(4-fluorophenoxy)piperidine-1-carbonyl)picolinamide], the EC50 is reported as 500 to 1000 nM. For `O=C(Nc1ccc(Oc2ccc(F)cc2)nc1)c1ccc(C(=O)N2CCC(C(=O)c3ccc(N4CCCC4)cc3)CC2)nc1` [Compound 382, N-(6-(4-fluorophenoxy)pyridin-3-yl)-6-(4-(4-(pyrrolidin-1-yl)benzoyl)piperidine-1-carbonyl)nicotinamide], the EC50 was under 500 nM. For `N#Cc1ccc(CN2CCC(NC(=O)c3ccc(C(=O)N4CCC(C(=O)c5ccc(N6CCCC6)cc5)CC4)cn3)CC2)cc1` [Compound 365, N-(1-(4-cyanobenzyl)piperidin-4-yl)-5-(4-(4-(pyrrolidin-1-yl)benzoyl)piperidine-1-carbonyl)picolinamide], the EC50 was under 500 nM. `N#Cc1ccc(OC2CCN(C(=O)c3ccc(C(=O)Nc4ccc(Oc5ccc(F)cc5)nc4)cn3)CC2)cc1` [Compound 326, 6-(4-(4-cyanophenoxy)piperidine-1-carbonyl)-N-(6-(4-fluorophenoxy)pyridin-3-yl)nicotinamide] showed an EC50 of under 500 nM. In the case of `O=C(c1ccc(Nc2ccc(Cc3ccccc3)cc2)nc1)N1CCN(Cc2ccc(F)cc2)CC1` [Compound 30], the EC50 is reported as 1000 to 5000 nM. In the case of `CS(=O)(=O)c1ccc(N2CCC(NC(=O)c3ccc(C(=O)N4CCC(Oc5ccc(C#N)cc5)CC4)nc3)CC2)cc1` [Compound 420, 6-(4-(4-cyanophenoxy)piperidine-1-carbonyl)-N-(1-(4-(methylsulfonyl)phenyl)piperidin-4-yl)nicotinamide], the EC50 is reported as 1000 to 5000 nM.
